According to patent publication US20240131173A1, “PROTACS WITH TRANSCRIPTION FACTOR TARGETING MOIETIES” (Beth Israel Deaconess Medical Center, Inc., priority 2021, published 2024):

How the values were obtained:
[1] = target: T1, VHL E3-PROTAC-p65 ternary complex (Homo sapiens, UniProt P40337+Q04206); assay: GST pulldown assay of VHL E3 ligase complex and p65 with TF-PROTAC; format: binding; details: GST-VHL complex from E. coli, HEK293T lysate with Flag-p65, in vitro
T1 construct: made in house; host or cells: E. coli BL21(DE3) for the GST-VHL/Elongin B/C complex; HEK293T lysate for Flag-p65
T1 sequence (P40337 whole entry): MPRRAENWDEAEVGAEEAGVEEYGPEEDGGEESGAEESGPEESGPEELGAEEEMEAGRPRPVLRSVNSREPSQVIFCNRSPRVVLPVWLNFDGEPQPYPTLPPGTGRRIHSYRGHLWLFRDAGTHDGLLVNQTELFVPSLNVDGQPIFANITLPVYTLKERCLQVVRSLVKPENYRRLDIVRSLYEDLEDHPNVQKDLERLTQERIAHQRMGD
T1 sequence (Q15370 whole entry partner): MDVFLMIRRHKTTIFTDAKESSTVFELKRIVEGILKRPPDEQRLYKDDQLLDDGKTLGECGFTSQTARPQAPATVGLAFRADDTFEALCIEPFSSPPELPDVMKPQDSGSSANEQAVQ
T1 sequence (Q15369 whole entry partner): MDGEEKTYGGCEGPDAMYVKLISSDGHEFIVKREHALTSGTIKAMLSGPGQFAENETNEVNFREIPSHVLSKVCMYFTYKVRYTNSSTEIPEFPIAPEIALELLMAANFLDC
T1 sequence (Q04206 whole entry): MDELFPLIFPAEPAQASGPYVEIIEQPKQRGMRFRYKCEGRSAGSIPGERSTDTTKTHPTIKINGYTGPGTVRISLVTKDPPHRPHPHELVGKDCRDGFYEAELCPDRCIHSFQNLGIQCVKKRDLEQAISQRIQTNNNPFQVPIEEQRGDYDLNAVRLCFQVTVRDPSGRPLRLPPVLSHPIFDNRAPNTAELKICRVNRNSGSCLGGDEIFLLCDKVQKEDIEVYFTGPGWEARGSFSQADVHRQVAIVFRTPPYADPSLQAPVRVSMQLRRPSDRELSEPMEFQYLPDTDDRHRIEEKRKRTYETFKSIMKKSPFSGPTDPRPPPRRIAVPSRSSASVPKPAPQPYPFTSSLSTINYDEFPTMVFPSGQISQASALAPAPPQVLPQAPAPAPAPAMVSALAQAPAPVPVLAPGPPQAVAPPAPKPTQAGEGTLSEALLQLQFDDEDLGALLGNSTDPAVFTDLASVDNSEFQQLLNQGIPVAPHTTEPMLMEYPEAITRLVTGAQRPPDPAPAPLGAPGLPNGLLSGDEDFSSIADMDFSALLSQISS
Description: Furthermore, dNF-κB is capable of recruiting VHL E3 ubiquitin ligase to POI, NF-κB. […] However, dNF-κB obtained in current stage could not efficiently promote the degradation of p65 in cells, which prompted further optimization of the length of linker between the VHL ligand and DNA oligomer moieties for achieving efficient destruction of NF-κB in cells.
pGEX-GST-VHL/ElonginB construct was kindly gift from Dr. William Kaelin, Jr. at Dana-Farber Cancer Institute, Harvard Medical School. pGEX-GST-Elongin C plasmid was generated by subcloning Elongin C CDS into the BamHI and Xhol sites of pGEX-4T1-GST vector. The GST-VHL/ElonginB/C complex was purified as described 43. Briefly, BL21(DE3) E. coli was cotransfected with pGEX-GST-VHL/ElonginB and pGEX-GSTElonginC plasmid. Protein expression was induced by 100 μM isopropyl beta-D-thiogalactopyranoside (IPTG, Fisher Scientific) at 18° C.overnight. Then, the bacterial culture was centrifuged and sonicated in PBS buffer with protease inhibitor cocktail. Protein lysates were further purified with glutathione-Sepharose beads (GE17-0756-05) and washed with PBS for 5 times.
Glutathione-Sepharose beads loaded with GST-VHL E3 ligase complex were incubated at 4° C. with cell lysate derived from HEK293T cells that ectopic transfected with individual transfection factor. After incubation for 3 hours, TF-PROTACs were added into the mixture for another 2 hours, followed by wash with NETN buffer for 3 times. The pulldown products were further separated by 10% SDS-PAGE and blotted for indicated proteins.

p65 [2] = target: T2, p65 (Homo sapiens, UniProt P19838+Q04206); assay: Global proteomic study by quantitative mass spectrometry in HeLa cells; format: cell-based; details: 12 hours, versus vehicle
T2 construct: endogenous in cells; host or cells: HeLa
T2 sequence (Q04206 whole entry): as above
T2 sequence (P19838 1-433 limits assumed): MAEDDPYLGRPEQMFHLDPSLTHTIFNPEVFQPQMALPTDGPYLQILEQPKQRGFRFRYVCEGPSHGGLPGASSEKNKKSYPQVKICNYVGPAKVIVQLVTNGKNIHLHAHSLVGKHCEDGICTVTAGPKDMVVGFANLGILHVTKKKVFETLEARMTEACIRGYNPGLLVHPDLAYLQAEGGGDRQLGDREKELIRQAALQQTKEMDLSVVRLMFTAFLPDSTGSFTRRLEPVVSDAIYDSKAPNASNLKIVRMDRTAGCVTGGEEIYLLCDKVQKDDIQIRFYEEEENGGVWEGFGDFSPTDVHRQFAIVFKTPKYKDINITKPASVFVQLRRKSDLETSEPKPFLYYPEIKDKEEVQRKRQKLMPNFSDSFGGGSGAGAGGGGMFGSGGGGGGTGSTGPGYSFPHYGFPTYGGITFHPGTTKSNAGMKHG
Experimental: (§1) HeLa cells were treated with either vehicle or dNF-κB #16 for 12 hours, washed twice with cold PBS, and then harvested in PBS to pellet down cells. Cell pellets were resuspended in lysis buffer ([…], 50 mM Tris-HCl, pH 8.0), reduced with dithiothreitol (5 mM final) for 30 min at room temperature, and alkylated with iodoacetamide (15 mM final) for 45 min in the dark at room temperature. Samples were diluted 4-fold with digestion buffer (25 mM Tris-HCl, pH 8.0, 1 mM CaCl2) and digested with trypsin at 1:100 ratio (trypsin/protein, w/w) overnight at room temperature. Peptides were desalted on home-made C18 stagetips. There were two biological samples at each condition.
(§2) Dried peptides were dissolved in 0.1% formic acid, 2% acetonitrile. Peptide concentration was measured with Pierce™ Quantitative Colorimetric Peptide Assay (Thermofisher). 0.5 ug of peptides were analyzed on a Q-Exactive HF-X coupled with an Easy nanoLC 1200 (Thermo Fisher Scientific, San Jose, CA). Peptides were loaded on to a nanoEase MZ HSS T3 Column (100 Å, 1.8 μm, 75 μm×150 mm, Waters). […]
(§3) Mass spectra were processed, and peptide identification was performed using the MaxQuant software version 1.6.10.43 (Max Planck Institute, Germany). […] Quantitation using iBAQ intensity (Intensity-Based Absolute Quantification) was performed with a p-value of 0.01 to report statistically significant abundance fold-changes.

HeLa cells = assay: Cell growth curve assay (cell number); format: cell-based, human; details: 10 ug/mL
Experimental: For cell growth curve assay, HeLa cells (10, 000/well) in 12-well plate were transfected with individual TF-PROTAC, then the cells were trypsined and the cell number were counted at indicated time. For the clonal formation assay, HeLa cells were transfected with individual TF-PROTAC for 12 hours, followed by further plated into 6-well plate (1,000/well). Three weeks later, the cells were fixed in fixation buffer (acetic acid: methanol=1:7) and stained with 0.4% crystal violet in 20% ethanol. Then clonal number were quantified by Image J software. As various changes can be made in the above-described subject matter without departing from the scope and spirit of the present disclsoure, it is intended that all subject matter contained in the above description, or defined in the appended claims, be interpreted as descriptive and illustrative. Many modifications and variations of the present disclosure are possible in light of the above teachings. Accordingly, the present description is intended to embrace all such alternatives, modifications and variances which fall within the scope of the appended claims.

p65 [3] = target: p65 (Homo sapiens, UniProt Q04206); assay: Global proteomic study by quantitative mass spectrometry in HeLa cells; format: cell-based; design: endogenous in cells; host or cells: HeLa; details: out of more than 4,100 detected proteins
Chain of p65 (Homo sapiens, UniProt Q04206) (Q04206 whole entry): as the sequence (Q04206 whole entry) above
Chain of p65 (Homo sapiens, UniProt Q04206) (P19838 1-433 limits assumed, further chain): as the sequence (P19838 1-433 limits assumed) above
Experimental: as §1, §2, §3

With “dNF-κB #16 (TGGGGACTTTCCAGTTTCTGGAAAGTCCCCA; decoy; VHL ligand conjugate via PEG3 linker, further chemistry not given here)” the “VHL E3 ligase-p65 binding (ternary complex) induced by PROTAC” value [1] was “recruited the binding between the VHL E3 ubiquitin ligase and p65 in vitro”, the “p65 level in global proteomics” value (p65 [2]) was “significant degradation of p65” and the “proliferation of HeLa cells (cell number)” value (HeLa cells) was “repressed the proliferation of HeLa cells”. For the same substance, the “number of proteins with reduced expression level” value (p65 [3]) was 31.
